Source: patent publication US20100280358A1, “SINGLE BREATH-HOLD SYSTEM AND METHOD FOR DETECTION AND ASSESSMENT OF MULTI-ORGAN PHYSIOLOGIC, MORPHOLOGIC AND STRUCTURAL CHANGES” (University of Virginia Patent Foundation, priority 2009, published 2010)

Columns and labels:
[1] = test system: rabbit model of stereotactic lung radiosurgery; test: SB-CSI with hp Xe-129 in a rabbit model of stereotactic lung radiosurgery with and without a radioprotector; format: in vivo, New Zealand rabbits; conditions: for mean difference between the lungs (SB-CSI maps, mean±SD): right lower lobe 3 x 11 Gy, 50 mg/Kg I.V. 20 minutes before each radiation dose, baseline 3.2%±3.5%
Excerpt: In order to study the efficacy of this technique for detecting changes in lung physiology and morphology, it was applied to a rabbit model of stereotactic lung radiosurgery with and without a radioprotector. The lower lobes of the right lung of nine New Zealand rabbits were irradiated with 3 doses of 11 Gy each (FIGS. 2A, 2B) using a TomoTherapy Hi-Art scanner. The healthy left lung was spared from radiation, so it could be used as a control and also would improve the animal's quality of life. Six of these nine animals received 50 mg/Kg of the radioprotector Amifostine, through an I.V., 20 minutes before each radiation dose. SB-CSI was performed using a 1.5-Tesla clinical MR scanner at baseline, and at 4 and 8 weeks post-radiation treatment. For correlation with the SB-CSI results, each animal was also scanned at the same time points (in the same MR scanner) using a 3D contrast-enhanced MRA sequence (ce-MRA), with 3 cc of a gadolinium chelate (FIGS. 2E, 2F). Within a week of the Xe-129 scan, a hyperpolarized Helium-3 (hp He-3) ventilation scan (FIGS. 2G, 2H) was obtained using the same inhalation and breath-hold technique as those for Xe-129, and a computed tomography (CT) scan was also obtained with a resolution of 0.5×0.5×1.5 mm^3 (FIGS. 2C, 2D).
SB-CSI maps based on the integrals of each individual peak were calculated separately for each animal and for each time point. At baseline the mean differences between the lungs were statistically identical for both groups, with 1.3%±1.0% (mean±SD) for the control group (radiosurgery only) and 3.2%±3.5% for the group that received radiosurgery and the radioprotector. At 4 weeks post radiosurgery, the mean differences between the lungs were 6.2%±2.3% and 4.6%±3.2% for the control and radioprotector groups, respectively. At 8 weeks post, the mean difference between the lungs increased to 16.7%±3.2% for the control group, while for the animals that received the radioprotector the value remained identical to baseline, at 3.4%±2.6%. […]

[2] = test system: rabbit model of lung fibrosis; test: hyperpolarized Xe-129 2D/3D-CSI in a rabbit model of lung fibrosis (endotracheal bleomycin); format: in vivo, New Zealand White rabbits; conditions: after endotracheal instillation, scans at 2, 4 and 7 weeks
Excerpt: Three New Zealand White rabbits underwent hyperpolarized Xe-129 2D or 3D-CSI one four different days: one before and 2, 4 and 7 weeks after the endotracheal instillation of bleomycin which induces lung fibrosis, or after the endotracheal instillation of porcine elastase which initially induces lung inflammation but later induces emphysema, and one control animal with no intervention. All scans were done in a 1.5 Tesla clinical system (Avanto, Siemens Medical Solutions) using a transmitter/receiver birdcage RF coil (IGC Medical Advances, Milwaukee, Wis.) tuned to the Xe-129 frequency. Isotopically enriched (˜87%) Xe-129 was polarized to ˜35% using a commercial prototype polarizer (Xemed LLC, NH). For each 2D or 3D acquisition, a single 40-cc volume was administered to the animal, and respiration was suspended for the acquisition (˜6-18s). […]
Quantification of the maps for the animal in the fibrosis model group show an increase in the tissue/gas and RBC/gas ratios following the instillation of bleomycin, but only the tissue/gas remained elevated, as expected in fibrosis (FIG. 5).
This Xe-129 dissolved-phase peak is not well resolved in normal rabbits and it was not seen in our control animal. […] Subsequently, each separate peak in the spectrum was quantified using a Principal Component Analysis (PCA) method (33)

| Compound | early treatment toxicity (radiation-induced pulmonary injury) detected by SB-CSI ([1]; 4 and 8 weeks post treatment, versus radiation only) | mean difference between the lungs (SB-CSI maps, mean±SD) ([1]; 4 weeks post radiosurgery, control group 6.2%±2.3%) | mean difference between the lungs (SB-CSI maps, mean±SD) ([1]; 8 weeks post radiosurgery, control group 16.7%±3.2%) | RBC/gas ratio (Xe-129 CSI maps) ([2]; did not remain elevated (FIG. 5)) | tissue/gas ratio (Xe-129 CSI maps) ([2]; remained elevated (FIG. 5)) |
| --- | --- | --- | --- | --- | --- |
| NCCCNCCSP(=O)(O)O [radioprotector, Amifostine] | reduced early treatment toxicity | 4.6%±3.2% | 3.4%±2.6% | – | – |
| bleomycin | – | – | – | increase | increase |
